Test results as given in patent US9868973B2, “Method for optimizing post-translational modifications on recombinant proteins” (STC Biologics, Inc., priority 2014, dated 2018).

System: fucosyl transferase
Experiment: Modulation of glycosylation PTMs of trastuzumab biosimilar in CHO cells by FTI (Methods 1 and 2), 2AB glycan analysis
Assay type: cell-based, Chinese Hamster
Experimental: To obtain a recipe for production of a biosimilar with a similar glycosylation pattern to the original Herceptin®, CHO cells engineered to express the recombinant protein with an amino acid sequence identical to trastuzumab were first grown in the growth media without any inhibitors to establish a Baseline. The glycan species were analyzed using 2AB glycan method. It was observed that Peak 2 (G0) and Peak 6 (G1), and Peak 7 (mannose-5 and G1′) PTMs were lower for the biosimilar than their target PTMs.
G0, G1 and G1′ PTMs are non-fucosylated PTMs and are controlled by a host protein called fucosyl transferase and the mannose-5 PTM is controlled by the host protein known as α-mannosidase I. Fucosyl transferase can be inhibited by a variety of fucosyltransferase inhibitors shown in FIG. 2, α-mannosidase I can be inhibited by kifunensine.
Briefly to obtain trastuzumab with PTMs in the target range, cells were placed in growth media and treated with 2F-Peracetyl-Fucose (FTI) on day 7 at different concentrations (20 μM, 10 μM, 5 μM, 1 μM, 0.1 μM) to identify optimal drug concentration. On day 12 cells were harvested and the trastuzumab biosimilar isolated. […] FTI concentrations used to reach target PTMs are cell specific so it is expected that different concentrations of the FTI or other modulators would be required when a starting cell line is different from the one described in this example.
Different treatment methods such as Method 2 can be used to obtain target PTMs. For example, FTI can be added on a daily basis starting on day 5 (Table 3, Method 2) rather than on Day 7.

[1] = Method 1: 10 μM FTI on Day 7, trastuzumab biosimilar from CHO cells
[2] = Method 2: […]-[…] FTI every day starting at day 5, trastuzumab biosimilar from CHO cells

Compound: CC(=O)OC1O[C@@H](C)[C@@H](OC(C)=O)[C@@H](OC(C)=O)[C@@H]1F (stereo partly shown) [FTI, 2F-Peracetyl-Fucose]
- G0, G1 and G1′ PTM levels versus target PTM range (10 μM FTI on day 7, harvest day 12): matched the target PTM range
- G0, G1 and G1′ PTM levels versus target PTMs (20 μM FTI on day 7, harvest day 12): increase of G0, G1 and G1′ PTMs above that of target PTMs
- PTMs versus target range (FTI at concentrations lower than 8 μM, day 7): outside the target range
- Glycan Species Peak 1 [1]: 1.5%
- Glycan Species Peak 2-G0 [1]: 4%
- Glycan Species Peak 3 [1]: 1.5%
- Glycan Species Peak 4-G0F [1]: 44%
- Glycan Species Peak 5 [1]: 0.8%
- Glycan Species Peak 6-G1 [1]: 1.8%
- Glycan Species Peak 7- G1F/mannose 5 [1]: 1.2%
- Glycan Species Peak 8- (1, 6)G1F [1]: 26%
- Glycan Species Peak 9 (1, 3)G1F [1]: 11%
- Glycan Species Peak 10 G2F [1]: 6.5%
- Glycan Species Peak 11 [1]: 0.2%
- Glycan Species Peak 12 [1]: 0.25%
- Glycan Species Peak 13 [1]: 0.2%
- Glycan Species Peak 14 [1]: 0.2%
- Glycan Species Peak 15 [1]: 0.2%
- Glycan Species Peak 4-G0F [2]: 44%
- Glycan Species Peak 8- (1, 6)G1F [2]: 26%
- Glycan Species Peak 9 (1, 3)G1F [2]: 11%
- Glycan Species Peak 10 G2F [2]: 6.5%
